EC50 data for 31 compounds are collected here from patent US20240336608A1, “IL4I1 INHIBITORS AND METHODS OF USE” (Merck Sharp & Dohme LLC, priority 2023, published 2024).

The test deals with T1, recombinant IL4I1 (Homo sapiens, UniProt Q96RQ9).
T1 construct: purchased R&D Systems 5684-AO-020
T1 sequence (Q96RQ9 22-567): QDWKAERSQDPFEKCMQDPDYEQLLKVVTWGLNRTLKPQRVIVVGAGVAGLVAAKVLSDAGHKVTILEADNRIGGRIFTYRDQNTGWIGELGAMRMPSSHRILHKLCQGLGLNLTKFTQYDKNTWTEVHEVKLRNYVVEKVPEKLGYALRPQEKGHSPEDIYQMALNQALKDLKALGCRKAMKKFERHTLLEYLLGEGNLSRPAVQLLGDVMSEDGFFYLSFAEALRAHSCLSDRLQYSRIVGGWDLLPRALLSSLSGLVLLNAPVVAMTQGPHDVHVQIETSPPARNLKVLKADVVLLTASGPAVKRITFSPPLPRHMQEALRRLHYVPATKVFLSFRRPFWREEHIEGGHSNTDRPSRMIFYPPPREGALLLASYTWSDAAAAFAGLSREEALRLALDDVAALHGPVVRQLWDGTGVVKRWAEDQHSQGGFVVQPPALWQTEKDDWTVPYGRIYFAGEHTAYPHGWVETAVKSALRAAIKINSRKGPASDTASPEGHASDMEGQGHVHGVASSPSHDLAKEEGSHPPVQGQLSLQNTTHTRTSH
Nature of the test: IL4I1 Enzymatic Assay (Amplex Red/HRP coupled detection of H2O2, fluorescence). Particulars: 1 nM recombinant IL4I1; four-hour pre-incubation with compound; 1 mM each Phe, Tyr, Trp; ten-point titration. It counts as biochemical. In short, it runs like this:
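Recombinant IL4I1 (1 nM final) pre-incubated 4 h at ambient temperature with compound (0.5% DMSO) in 50 mM Hepes pH 7.0, 0.005% Tween20; reaction started with 1 mM each Phe/Tyr/Trp plus excess Amplex Red/HRP, run 120 min. H2O2 read as resorufin fluorescence; EC50 from 10-point four-parameter fit.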
In general, EC50 refers to the concentration that produces a half-maximal response. Turning to `CC(C)(C)Cn1cc(C(=O)NCc2nnc(-c3ccccc3)s2)nn1` [Example 86, 1-neopentyl-N-((5-phenyl-1,3,4-thiadiazol-2-yl)methyl)-1H-1,2,3-triazole-4-carboxamide], the concentration giving a half-maximal response (EC50) was 42 nM. For `N#CC1(Cn2cc(C(=O)NCc3nnc(-c4ccccc4)s3)nn2)CC1` [Example 87, 1-((1-cyanocyclopropyl)methyl)-N-((5-phenyl-1,3,4-thiadiazol-2-yl)methyl)-1H-1,2,3-triazole-4-carboxamide], the concentration giving a half-maximal response (EC50) came out at 18 nM.

For `CC(C)Cn1cc(C(=O)NCc2nnc(-c3ccccc3)s2)nn1` [Example 88, 1-isobutyl-N-((5-phenyl-1,3,4-thiadiazol-2-yl)methyl)-1H-1,2,3-triazole-4-carboxamide], the concentration giving a half-maximal response (EC50) turned out to be 13 nM. `CCC(C)Cn1cc(C(=O)NCc2nnc(-c3ccccc3)s2)nn1` (stereo not shown) [Example 89, 1-(2-methylbutyl)-N-((5-phenyl-1,3,4-thiadiazol-2-yl)methyl)-1H-1,2,3-triazole-4-carboxamide]: the EC50 amounted to 37 nM. Take `N#CCCCCn1cc(C(=O)NCc2nnc(-c3ccccc3)s2)nn1` [Example 90, 1-(4-cyanobutyl)-N-((5-phenyl-1,3,4-thiadiazol-2-yl)methyl)-1H-1,2,3-triazole-4-carboxamide]: the EC50 stood at 27 nM. For `CCOCCn1cc(C(=O)NCc2nnc(-c3ccccc3)s2)nn1` [Example 91, 1-(2-ethoxyethyl)-N-((5-phenyl-1,3,4-thiadiazol-2-yl)methyl)-1H-1,2,3-triazole-4-carboxamide], the 50% effective concentration (EC50) is 27 nM. `CCCn1cc(C(=O)NCc2nnc(-c3ccccc3)s2)nn1` [Example 92, N-((5-phenyl-1,3,4-thiadiazol-2-yl)methyl)-1-propyl-1H-1,2,3-triazole-4-carboxamide]: the concentration for a half-maximal effect (EC50) was found to be 3 nM. The same measure for `O=C(NCc1nnc(-c2ccccc2)s1)c1cn(CCCF)nn1` [Example 93, 1-(3-fluoropropyl)-N-((5-phenyl-1,3,4-thiadiazol-2-yl)methyl)-1H-1,2,3-triazole-4-carboxamide]: 8 nM; for `CC(C)CCn1cc(C(=O)NCc2nnc(-c3ccccc3)s2)nn1` [Example 94, 1-isopentyl-N-((5-phenyl-1,3,4-thiadiazol-2-yl)methyl)-1H-1,2,3-triazole-4-carboxamide]: 68 nM. Turning to `O=C(NCc1nnc(-c2ccccc2)s1)c1cn(C2CCCCC2)nn1` [Example 95, 1-cyclohexyl-N-((5-phenyl-1,3,4-thiadiazol-2-yl)methyl)-1H-1,2,3-triazole-4-carboxamide], the EC50 came to 189 nM. For `COCCCn1cc(C(=O)NCc2nnc(-c3ccccc3)s2)nn1` [Example 96, 1-(3-methoxypropyl)-N-((5-phenyl-1,3,4-thiadiazol-2-yl)methyl)-1H-1,2,3-triazole-4-carboxamide], the 50% effective concentration (EC50) was 16 nM. As to `CC1(O)CCC(n2cc(C(=O)NCc3nnc(-c4ccccc4)s3)nn2)CC1` (stereo not shown) [Example 97, 1-(4-hydroxy-4-methylcyclohexyl)-N-((5-phenyl-1,3,4-thiadiazol-2-yl)methyl)-1H-1,2,3-triazole-4-carboxamide], the EC50 was found to be 486 nM. The same measure for `O=C(NCc1nnc(-c2ccccc2)s1)c1cn(CCCC(F)(F)F)nn1` [Example 98, N-((5-phenyl-1,3,4-thiadiazol-2-yl)methyl)-1-(4,4,4-trifluorobutyl)-1H-1,2,3-triazole-4-carboxamide]: 272 nM. `O=C(NCc1nnc(-c2ccccc2)s1)c1cn(Cc2ccncc2)nn1` [Example 99, N-((5-phenyl-1,3,4-thiadiazol-2-yl)methyl)-1-(pyridin-4-ylmethyl)-1H-1,2,3-triazole-4-carboxamide]: the half-maximal effective concentration (EC50) is 21 nM.

With `O=C(NCc1nnc(-c2ccccc2)s1)c1cn(Cc2ccccn2)nn1` [Example 101, N-((5-phenyl-1,3,4-thiadiazol-2-yl)methyl)-1-(pyridin-2-ylmethyl)-1H-1,2,3-triazole-4-carboxamide], the EC50 was found to be 19 nM. Consider `CC(=O)N1CC(n2cc(C(=O)NCc3nnc(-c4ccccc4)s3)nn2)C1` [Example 102, 1-(1-acetylazetidin-3-yl)-N-((5-phenyl-1,3,4-thiadiazol-2-yl)methyl)-1H-1,2,3-triazole-4-carboxamide], for which the EC50 stood at 296 nM. As for `O=C(NCc1nnc(-c2ccccc2)s1)c1cn(C2CN(C(=O)C3CC3)C2)nn1` [Example 103, 1-(1-(cyclopropanecarbonyl)azetidin-3-yl)-N-((5-phenyl-1,3,4-thiadiazol-2-yl)methyl)-1H-1,2,3-triazole-4-carboxamide], the concentration giving a half-maximal response (EC50) came to 542 nM. The same measure for `Cc1ccc(-n2cc(C(=O)NCc3nnc(-c4ccc(F)cc4F)s3)nn2)c(C)n1` [Example 105, N-((5-(2,4-difluorophenyl)-1,3,4-thiadiazol-2-yl)methyl)-1-(2,6-dimethylpyridin-3-yl)-1H-1,2,3-triazole-4-carboxamide]: 909 nM; for `Cc1ccc(-n2cc(C(=O)NCc3nnc(-c4ccc(F)c(F)c4)s3)nn2)c(C)n1` [Example 106, N-((5-(3,4-difluorophenyl)-1,3,4-thiadiazol-2-yl)methyl)-1-(2,6-dimethylpyridin-3-yl)-1H-1,2,3-triazole-4-carboxamide]: 695 nM. Regarding `Cc1ccc(-n2cc(C(=O)NCc3nnc(-c4ccccc4C)s3)nn2)c(C)n1` [Example 107, 1-(2,6-dimethylpyridin-3-yl)-N-((5-(o-tolyl)-1,3,4-thiadiazol-2-yl)methyl)-1H-1,2,3-triazole-4-carboxamide], the half-maximal effective concentration (EC50) worked out at 58 nM. Consider `Cc1ccc(-n2cc(C(=O)NCc3nnc(-c4cc(F)ccc4F)s3)nn2)c(C)n1` [Example 108, N-((5-(2,5-difluorophenyl)-1,3,4-thiadiazol-2-yl)methyl)-1-(2,6-dimethylpyridin-3-yl)-1H-1,2,3-triazole-4-carboxamide], for which the 50% effective concentration (EC50) was determined as 651 nM.

With `Cc1ccc(-n2cc(C(=O)NCc3nnc(-c4ccsc4C)s3)nn2)c(C)n1` [Example 109, 1-(2,6-dimethylpyridin-3-yl)-N-((5-(2-methylthiophen-3-yl)-1,3,4-thiadiazol-2-yl)methyl)-1H-1,2,3-triazole-4-carboxamide], the EC50 was 29 nM.

As to `Cc1ccc(-n2cc(C(=O)NCc3nnc(-c4cccc(F)c4C)s3)nn2)c(C)n1` [Example 110, 1-(2,6-dimethylpyridin-3-yl)-N-((5-(3-fluoro-2-methylphenyl)-1,3,4-thiadiazol-2-yl)methyl)-1H-1,2,3-triazole-4-carboxamide], the 50% effective concentration (EC50) was determined as 312 nM. The same measure for `Cc1ccc(-n2cc(C(=O)NCc3nnc(-c4ccc(F)cc4Cl)s3)nn2)c(C)n1` [Example 111, N-((5-(2-chloro-4-fluorophenyl)-1,3,4-thiadiazol-2-yl)methyl)-1-(2,6-dimethylpyridin-3-yl)-1H-1,2,3-triazole-4-carboxamide]: 727 nM; for `Cc1ccc(-n2cc(C(=O)NCc3nnc(-c4ccccc4Cl)s3)nn2)c(C)n1` [Example 112, N-((5-(2-chlorophenyl)-1,3,4-thiadiazol-2-yl)methyl)-1-(2,6-dimethylpyridin-3-yl)-1H-1,2,3-triazole-4-carboxamide]: 82 nM. Turning to `Cc1ccc(-n2cc(C(=O)NCc3nnc(-c4ccc(Cl)cc4)s3)nn2)c(C)n1` [Example 113, N-((5-(4-chlorophenyl)-1,3,4-thiadiazol-2-yl)methyl)-1-(2,6-dimethylpyridin-3-yl)-1H-1,2,3-triazole-4-carboxamide], the concentration for a half-maximal effect (EC50) is 838 nM. The same measure for `Cc1ccc(-n2cc(C(=O)NCc3nnc(-c4ccccc4F)s3)nn2)c(C)n1` [Example 114, 1-(2,6-dimethylpyridin-3-yl)-N-((5-(2-fluorophenyl)-1,3,4-thiadiazol-2-yl)methyl)-1H-1,2,3-triazole-4-carboxamide]: 37 nM; for `Cc1ccc(-n2cc(C(=O)NCc3nnc(-c4ccc(O)cc4)s3)nn2)c(C)n1` [Example 115, 1-(2,6-dimethylpyridin-3-yl)-N-((5-(4-hydroxyphenyl)-1,3,4-thiadiazol-2-yl)methyl)-1H-1,2,3-triazole-4-carboxamide]: 36 nM; for `Cc1ccc(-n2cc(C(=O)NCc3ccc(-c4ccccc4F)nn3)nn2)c(C)n1` [Example 116, 1-(2,6-dimethylpyridin-3-yl)-N-((6-(2-fluorophenyl)pyridazin-3-yl)methyl)-1H-1,2,3-triazole-4-carboxamide]: 74 nM. The figure for `Cc1ccc(-n2cc(C(=O)NCc3ccc(-c4cccc(F)c4F)nn3)nn2)c(C)n1` [Example 117, N-((6-(2,3-difluorophenyl)pyridazin-3-yl)methyl)-1-(2,6-dimethylpyridin-3-yl)-1H-1,2,3-triazole-4-carboxamide] is 692 nM. The same measure for `Cc1ccc(-n2cc(C(=O)NCc3ccc(-c4ccsc4)nn3)nn2)c(C)n1` [Example 118, 1-(2,6-dimethylpyridin-3-yl)-N-((6-(thiophen-3-yl)pyridazin-3-yl)methyl)-1H-1,2,3-triazole-4-carboxamide]: 31 nM.
